Assay results as given in paper PMC12977544, “Phenotypic high-throughput screening identifies modulators of gut microbial choline metabolism” (mBio, 2026).
pEC50, pIC50: −log10 of the molar value. Converted amounts (≈) assume the structure as drawn. Like-named read-outs stand apart in the source and are kept apart here.

Columns and labels:
[1] = tested on: Anaerococcus hydrogenalis DSM 7454; experiment: TMA inhibition in bacterial whole cells (LC–MS/MS of d9-TMA from d9-choline); assay type: cell-based; conditions: 1 mM d9-choline in PBS, 75 min, 37°C, anaerobic
Experimental: (§1) For TMA inhibition assays, E. coli and P. mirabilis were grown in NCE medium supplemented with 20 mM choline chloride, A. hydrogenalis was grown in MEGA medium supplemented with 3 mM choline chloride, and C. sporogenes was grown in BHI medium supplemented with 20 mM of choline chloride to induce expression of the cut gene cluster. For MIC assays, all bacteria strains were grown in MEGA medium.
(§2) Compounds were stored as 10 mM DMSO stocks at –20°C and diluted in DMSO to prepare varying concentrations of inhibitors for testing. Bacteria were grown anaerobically overnight in media supplemented with choline as described above. Cells were pelleted and resuspended in PBS, and d9-choline chloride was added to a final concentration of 1 mM. The final OD600 of the PBS cell resuspensions is as follows: 0.4 (E. coli), 0.15–0.2 (P. mirabilis), 0.2 (C. sporogenes), and 0.4 (A. hydrogenalis). The resuspended cells were added to 96-well plates containing inhibitors (final concentration of 1% DMSO, with final inhibitor concentrations ranging between 0 and 325 µM). The plates were sealed and incubated for 75 min (or 90 min for P. mirabilis) at 37°C. Following incubation, the plates were removed from the anaerobic chamber and analyzed immediately or kept at –20°C until LC–MS/MS analysis. Each inhibitor concentration was tested in triplicate. EC50 values were calculated with GraphPad Prism by fitting the log(inhibitor) vs response—Variable slope (four-parameter) model for non-linear regression.
(§3) Samples were kept frozen until analysis and kept cold on ice during handling due to the volatility of TMA. Bacterial cell resuspensions in PBS were diluted 100-fold in LCMS-grade acetonitrile with 0.1% formic acid to lyse cells, precipitate proteins, and extract metabolites. Samples were centrifuged at 4,000 rpm for 10 min at 4°C to pellet proteins. The supernatants were then further diluted 20-fold in LCMS-grade acetonitrile with 0.1% formic acid, and the resulting solution was analyzed by LC–MS/MS.
(§4) LC–MS/MS analysis was performed on an Agilent 1290/6470 Triple Quadrupole LC–MS instrument (Agilent Technologies) using electrospray ionization. The mass spectrometer was operated in multiple reaction monitoring (MRM) mode with positive ionization monitoring. The precursor–product ion pairs used in MRM mode were as follows: m/z 69.1m/z → 49.1 (d9-TMA) and m/z 113.2 m/z → 69.1 (d9-choline). The capillary voltage was set to 4.0 kV, and the fragmentor voltage was set to 30 V (d9-TMA) and 115 V (d9-choline). The collision energy for the precursor–product ion pairs was set to 29 V (d9-TMA) and 21 V (d9-choline). MS^1 resolution was set to wide and MS^2 resolution to unit. The drying gas temperature was maintained at 250°C, with a flow rate of 11 L/min and a nebulizer pressure of 45 psi. The time filter width used was 0.07 min. The injection volume of all samples was 1 μL. Samples were injected onto InfinityLab Poroshell 120 (Agilent) HILIC columns (2.7 μm, 100 mm × 2.1 mm, 100 Å) preceded by InfinityLab Poroshell 120 HILIC guard columns (2.1 mm, 1.9µm UHPLC guard). The LC conditions on the binary pump were as follows: a gradient of 5–35% A increasing over 1.95 min (1.2 mL/min), a gradient of 35–5% A decreasing over 0.05 min (1.6 mL/min), and held at 5% A for 0.5 min (2 mL/min). […] Solvent A was 10 mM ammonium formate with 0.1% formic acid, and solvent B was acetonitrile with 0.1% formic acid. Data analysis was performed with Mass Hunter Workstation Data Acquisition and Qualitative Analysis software (Agilent Technologies).

[2] = tested on: Proteus mirabilis ATCC 29906; experiment: as above; assay type: cell-based; conditions: 1 mM d9-choline in PBS, 90 min, 37°C, anaerobic; for pEC50: read-out: EC50 in whole cells, P. mirabilis (TMA inhibition)
Experimental: as §1, §2, §3, §4

[3] = tested on: Clostridium sporogenes ATCC 15579; experiment: as above; assay type: cell-based; conditions: 1 mM d9-choline in PBS, 75 min, 37°C, anaerobic
Experimental: as §1, §2, §3, §4

E. coli MS 200-1 [4] = experiment: as above; assay type: cell-based, Escherichia coli MS 200-1; conditions: 1 mM d9-choline in PBS, 75 min, 37°C, anaerobic
Experimental: as §1, §2, §3, §4

[5] = target: T1, purified CutC (choline trimethylamine-lyase) (Oleidesulfovibrio alaskensis, UniProt Q30W70); experiment: In vitro CutC activity assay coupled to YADH/NADH (absorbance 340 nm); assay type: biochemical, Desulfovibrio desulfuricans G20; conditions: 5 nM CutC, 200 µM choline, 20°C, anaerobic
T1 construct: made in house
Experimental: To investigate if our compounds were inhibiting CutC directly, we tested their activity toward the purified enzyme. The activity of CutC was determined using a coupled enzyme assay, where the acetaldehyde product from the cleavage of choline to TMA is reduced to ethanol by yeast alcohol dehydrogenase (YADH) using nicotinamide adenine dinucleotide (NADH) as a cofactor. The consumption of NADH results in a change in absorption at 340 nm, and this rate of change of absorption was used to calculate the initial rates of reaction of CutC in the presence of varying concentrations of inhibitors ([14], [65]).
CutC and CutD enzymes from Desulfovibrio desulfuricans G20 were purified, CutC was activated by incubation with CutD, and the amount of glycyl radical installation was quantified as previously described ([15]). The IC50 of compounds was determined in an in vitro CutC activity assay, where CutC activity is coupled to the NADH-dependent enzymatic reduction of acetaldehyde by YADH ([15]). Briefly, assays were conducted in an anaerobic chamber (MBraun) under N2 atmosphere at 20°C. In 50 mM potassium phosphate buffer (pH 8.0, 50 mM KCl), 40 µM of CutD and 150 µM of sodium dithionite were incubated for 20 min before the addition of 200 µM of SAM and 20 µM of CutC monomer. The mixture was incubated for 1 h to activate the glycyl radical enzyme, after which the activated CutC mixture was diluted […] in 50 mM potassium phosphate buffer (pH 8.0, 50 mM KCl). A master mix containing 200 µM NADH, 0.4 µM YADH (Sigma), and the diluted CutC mixture (5 nM final concentration in assay) was prepared and aliquoted into 96-well plates (180 µL per well). Ten microliters of inhibitor or DMSO vehicle was added, followed by 10 µL of aqueous choline chloride solution (final concentration 200 µM). Absorbance was measured at 340 nm immediately after addition of all assay components, with measurements taken every 20 s for 10 min. Initial rates were calculated from absorbance measurements and fitted to Michaelis–Menten equation using nonlinear regression in GraphPad Prism 10 (v. 10.4.0). Background activity was subtracted using no substrate controls, and initial rates for each inhibitor concentration were normalized to no inhibitor controls. IC50 values were obtained by plotting normalized activity values against the logarithm of inhibitor concentration and fitting to a nonlinear regression model in GraphPad Prism 10 (v. 10.4.0).

E. coli MS 200-1 [6] = experiment: MIC in MEGA medium; assay type: cell-based, Escherichia coli MS 200-1; conditions: anaerobic, 37°C, 24 h, up to 200 µM
Experimental: as §1

[7] = tested on: Anaerococcus hydrogenalis DSM 7454; experiment: MIC in MEGA medium; assay type: cell-based; conditions: anaerobic, 37°C, 24 h, up to 200 µM
Experimental: as §1

[8] = tested on: Bacteroides caccae ATCC 43185; experiment: MIC in MEGA medium; assay type: cell-based; conditions: anaerobic, 37°C, 24 h, up to 200 µM, read-out: MIC in MEGA medium, B. caccae
Experimental: as §1

[9] = tested on: Collinsella aerofaciens ATCC 25986; experiment: MIC in MEGA medium; assay type: cell-based; conditions: anaerobic, 37°C, 24 h, up to 200 µM
Experimental: as §1

[10] = tested on: Bacteroides thetaiotaomicron VPI-5482; experiment: MIC in MEGA medium; assay type: cell-based; conditions: anaerobic, 37°C, 24 h, up to 200 µM, read-out: MIC in MEGA medium, B. thetaiotaomicron
Experimental: as §1

[11] = tested on: Bacteroides ovatus ATCC 8483; experiment: MIC in MEGA medium; assay type: cell-based; conditions: anaerobic, 37°C, 24 h, up to 200 µM, read-out: MIC in MEGA medium, B. ovatus
Experimental: as §1

[12] = tested on: Proteus mirabilis ATCC 29906; experiment: MIC in MEGA medium; assay type: cell-based; conditions: anaerobic, 37°C, 24 h, up to 200 µM, read-out: MIC in MEGA medium, P. mirabilis
Experimental: as §1

[13] = tested on: Clostridium sporogenes ATCC 15579; experiment: MIC in MEGA medium; assay type: cell-based; conditions: anaerobic, 37°C, 24 h, up to 200 µM
Experimental: as §1

[14] = tested on: choline-metabolizing gut bacteria (E. coli, P. mirabilis, C. sporogenes, A. hydrogenalis); experiment: TMA inhibition across the panel of four choline-metabolizing gut bacteria; assay type: cell-based; conditions: compared with compound 6
From the text: We then used secondary assays to prioritize scaffolds that had broad-spectrum TMA inhibitory activity against additional choline-metabolizing gut bacteria. For this, we used Clostridium sporogenes ATCC 15579, a human gut isolate that is able to efficiently ferment choline in addition to other carbon sources, as well as Anaerococcus hydrogenalis DSM 7454 and Proteus mirabilis ATCC 29906, human gut isolates previously identified to metabolize choline in vitro ([61]). In particular, E. coli MS 200-1 and C. sporogenes ATCC 15579 have been used in gnotobiotic studies to investigate the effects of bacterial choline metabolism on the host and microbiome ([46], [61], [62]). These strains are representative of taxa frequently detected in humans ([63]) and, together with E. coli, are representative of the major phyla and genera in which TMA producers have been detected across human gut isolates ([48]). Importantly, this group of strains included both gram-positive and gram-negative bacteria. Gram-negative bacteria have an additional outer membrane layer and associated efflux pumps ([29]), which typically decreases small molecule permeability compared to gram-positive bacteria. It also included bacteria with cut gene cluster architectures that differ in the number and types of microcompartment proteins encoded and in the size of the CutC enzyme ([48]). We hypothesized that testing the inhibitors against multiple choline-utilizing gut bacteria would increase the likelihood of identifying compounds with broad-spectrum activity.
as §2

[15] = tested on: Eubacterium rectale ATCC 33656; experiment: MIC in MEGA medium; assay type: cell-based; conditions: anaerobic, 37°C, 24 h, up to 200 µM; read-out: MIC in MEGA medium, E. rectale
Experimental: as §1

T1 sequence (Q30W70 53-846): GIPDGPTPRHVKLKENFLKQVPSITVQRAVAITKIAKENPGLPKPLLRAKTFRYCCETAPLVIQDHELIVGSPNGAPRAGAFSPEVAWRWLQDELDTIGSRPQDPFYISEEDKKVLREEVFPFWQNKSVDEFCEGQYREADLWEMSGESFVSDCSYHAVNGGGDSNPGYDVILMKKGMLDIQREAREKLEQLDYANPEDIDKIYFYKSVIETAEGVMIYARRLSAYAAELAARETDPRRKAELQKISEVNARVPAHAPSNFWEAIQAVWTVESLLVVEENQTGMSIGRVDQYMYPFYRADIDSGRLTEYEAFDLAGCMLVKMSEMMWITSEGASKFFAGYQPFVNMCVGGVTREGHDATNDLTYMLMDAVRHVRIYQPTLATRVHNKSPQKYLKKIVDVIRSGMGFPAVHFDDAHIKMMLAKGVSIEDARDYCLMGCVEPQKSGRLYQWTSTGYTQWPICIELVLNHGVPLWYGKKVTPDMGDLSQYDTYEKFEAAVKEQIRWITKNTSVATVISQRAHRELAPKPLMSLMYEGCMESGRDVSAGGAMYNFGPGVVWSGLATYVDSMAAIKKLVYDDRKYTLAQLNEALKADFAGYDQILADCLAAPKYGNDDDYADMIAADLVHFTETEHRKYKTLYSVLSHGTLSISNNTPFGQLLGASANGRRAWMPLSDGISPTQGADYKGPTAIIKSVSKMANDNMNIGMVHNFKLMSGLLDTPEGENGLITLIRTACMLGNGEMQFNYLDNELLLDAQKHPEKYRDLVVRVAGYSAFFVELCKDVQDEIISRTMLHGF

## Cc1[nH]ccc1C(=O)NCCCN1CCC(C)CC1 [Compound 20]
[1]
  EC50 in whole cells, A. hydrogenalis (TMA inhibition): No inhibition at 312
[2]
  EC50 in whole cells, P. mirabilis (TMA inhibition): No inhibition at 312
[3]
  EC50 in whole cells, C. sporogenes (TMA inhibition): No inhibition at 312
E. coli MS 200-1 [4]
  pEC50: < 3.90
[5]
  pIC50: < 3.90

## Cc1ccc(-c2cc(C(=O)NCCCCN3CCCCCC3)c(C)[nH]2)cc1C [Compound 44]
E. coli MS 200-1 [6]; Escherichia coli, MS2001
  MIC: > 200 µM
[7]; Anaerococcus hydrogenalis, DSM7454
  MIC: > 200 µM
[8]; Bacteroides caccae, ATCC43185
  MIC: > 200 µM
[9]; Collinsella aerofaciens, ATCC25986
  MIC: > 200 µM
[10]; Bacteroides thetaiotaomicron, VPI5482
  MIC: > 200 µM
[11]; Bacteroides ovatus, ATCC8483
  MIC: > 200 µM
[12]; Proteus mirabilis, ATCC29906
  MIC: > 200 µM
[13]; Clostridium sporogenes, ATCC15579
  MIC: > 200 µM

## Cc1ccc(-c2cc(C(=O)OCCCN3CCC(C)CC3)c(C)[nH]2)cc1C [Compound 28]
[1]
  pEC50: 4.96
[2]
  pEC50: < 3.51
[3]
  pEC50: 4.74
E. coli MS 200-1 [4]
  pEC50: 4.82
[5]
  Purified CutC IC50: No inhibition

## Cc1ccc(-c2cc(C(=O)NCCCN3CCC(C)CC3)c[nH]2)cc1C [Compound 7]
[1]
  pEC50: 4.18
[2]
  pEC50: 4.10
[3]
  pEC50: 3.67
[14]
  Fold reduction of potency across all four choline-metabolizing bacteria: about 2 fold
E. coli MS 200-1 [4]
  pEC50: 4.80

## Cc1cc(-c2cc(C(=O)NCCCN3CCC(C)CC3)c(C)[nH]2)ccn1 [Compound 26]
[1]
  EC50 in whole cells, A. hydrogenalis (TMA inhibition): No inhibition at 312
[2]
  pEC50: < 3.51
[3]
  EC50 in whole cells, C. sporogenes (TMA inhibition): No inhibition at 312
E. coli MS 200-1 [4]
  pEC50: < 3.90
[5]
  pIC50: 4.35

## Cc1ccc(-c2cc(C(=O)N(C)CCCN3CCC(C)CC3)c(C)[nH]2)cc1C [Compound 27]
[1]
  pEC50: 4.36
[2]
  pEC50: < 3.51
[3]
  pEC50: 4.92
E. coli MS 200-1 [4]
  pEC50: < 3.90
[5]
  pIC50: 4.74

## Cc1cccc(-c2cc(C(=O)NCCCN3CCC(C)CC3)c(C)[nH]2)c1 [Compound 23]
[1]
  pEC50: 4.46
[2]
  pEC50: 4.34
[3]
  pEC50: 4.02
E. coli MS 200-1 [6]
  MIC: > 200 µM
[7]
  MIC: > 200 µM
[8]
  MIC: > 200 µM
[9]
  MIC: 200 µM (≈ 70.7 µg/mL)
[10]
  MIC: > 200 µM
[15]
  MIC: > 200 µM
[11]
  MIC: > 200 µM
[12]
  MIC: > 200 µM
[13]
  MIC: > 200 µM
E. coli MS 200-1 [4]
  pEC50: 5.30
[5]
  pIC50: 4.19

## Cc1ccc(-c2cc(C(=O)NCCCN3CCOCC3)c(C)[nH]2)cc1C [Compound 37]
[5]
  Purified CutC IC50: No inhibition
